Source: ChEMBL document CHEMBL1201862, “PubChem BioAssay data set” (2004)
Calls of active or inactive are those of the source.

Tests used:
[1] = Luminescence Cell-Based Dose HTS Response to Identify Inhibitors of 5'UTR Stem-Loop Driven Prion Protein mRNA Translation in H4-C Neuroglioblastoma Cells. [Related pubchem assays (depositor defined):AID1814, AID1827]; assay type: functional
[2] = cytotoxicity in HEK-293T cells, dose response, cytotoxicity control for TCR NF-kB inhibitor project, luminescence, T-cell screen hits (AID 489026); assay type: functional, cell-based;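 note: cells exposed to compound about 14 hours before the viability readout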
[3] = Luminescence Cell-Based Dose Retest to Confirm Activators of 5'UTR Stem-Loop Driven Alpha-Synuclein mRNA Translation in H4 Neuroglioblastoma Cells. [Related pubchem assays (depositor defined):AID1813, AID1829]; assay type: functional
[4] = Luminescence Cell-Based Dose Response HTS to Identify Activators of 5'UTR Stem-Loop Driven Prion Protein mRNA Translation in H4-C Neuroglioblastoma Cells. [Related pubchem assays: 1829 (Project Summary), 1814 (Primary HTS)]; assay type: functional
[5] = inhibitors of firefly luciferase expression or activity, dose response, H4 neuroglioma cells, luminescence (AID 1990); assay type: functional, cell-based
[6] = inhibitors of SNCA 5'UTR-driven reporter translation, confirmation, H4 neuroglioma cells, luminescence (AID 1988); assay type: functional, cell-based
[7] = Luminescence Cell-Based Dose Confirmation HTS to Identify Inhibitors of 5'UTR Stem-Loop Driven Alpha-Synuclein mRNA Translation in H4 Neuroglioblastoma Cells. [Related pubchem assays: 1827 (Project Summary), 1813 (Primary HTS)]; assay type: functional
[8] = Luminescence Cell-Based Dose Response HTS to Identify Activators of Luciferase Translation or Activity in H4-C Neuroglioblastoma Cells. [Related pubchem assays: 1829 (Project Summary), 1814 (Primary HTS)]; assay type: functional
[9] = Luminescence Cell-Based Dose Response HTS to Identify Inhibitors of Luciferase Translation or Activity in H4-C Neuroglioblastoma Cells. [Related pubchem assays: 1813 (Primary HTS), 1827 (Project Summary)]; assay type: functional
[10] = target: T1, Cannabinoid receptor 2 (Homo sapiens, UniProt P34972); experiment: SAR analysis of agonists of the Cannabinoid Receptor 2 using an Image-Based Assay - Set 3. [Related pubchem assays (depositor defined):AID2013, AID2026]; assay type: functional
[11] = target: T2, G-protein coupled receptor 35 (Homo sapiens, UniProt Q9HC97); experiment: SAR analysis of Agonists of the GPR35 Receptor using an Image-Based Assay - Set 4. [Related pubchem assays (depositor defined):AID2013, AID2026]; assay type: functional
[12] = target: T1, Cannabinoid receptor 2; experiment: SAR analysis of antagonists of the Cannabinoid Receptor 2 using an Image-Based Assay - Set 3. [Related pubchem assays (depositor defined):AID2013, AID2026]; assay type: functional
[13] = target: T3, Cannabinoid receptor 1 (Homo sapiens, UniProt P21554); experiment: SAR analysis of agonists of the Cannabinoid Receptor 1 using an Image-Based Assay - Set 4. [Related pubchem assays (depositor defined):AID2013, AID2026]; assay type: functional
[14] = target: T3, Cannabinoid receptor 1; experiment: SAR analysis of antagonists of the Cannabinoid Receptor 1 using an Image-Based Assay - Set 4. [Related pubchem assays (depositor defined):AID2013, AID2026]; assay type: functional
[15] = target: G-protein coupled receptor 55 (Homo sapiens, UniProt Q9Y2T6); experiment: SAR Analysis of Selective Antagonists of GPR55 using an Image-Based Assay - Set 4. [Related pubchem assays (depositor defined):AID2013, AID2026]; assay type: functional;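 note: antagonism of response to 5 µM lysophosphatidylinositol agonist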
[16] = target: T2, G-protein coupled receptor 35; experiment: SAR analysis of Antagonists of the GPR35 Receptor using an Image-Based Assay - Set 6. [Related pubchem assays (depositor defined):AID2013, AID2026]; assay type: functional
[17] = target: T4, Delta-type opioid receptor (Homo sapiens, UniProt P41143); experiment: SAR Analysis of Antagonists of the DOR Receptor using an Image-Based Assay - Set 2. [Related pubchem assays (depositor defined):AID1777, AID1785, AID1786, AID1966, AID2133, AID2136, AID2284, AID2285, AID2357]; assay type: functional
[18] = target: T5, Mu-type opioid receptor (Homo sapiens, UniProt P35372); experiment: SAR Analysis of Antagonists of the MOR Receptor using an Image-Based Assay - Set 2. [Related pubchem assays (depositor defined):AID1777, AID1785, AID1786, AID1966, AID2133, AID2136, AID2284, AID2285, AID2420]; assay type: functional
[19] = target: T6, Kappa-type opioid receptor (Homo sapiens, UniProt P41145); experiment: SAR analysis of small molecule agonists of the kappa opioid receptor via a luminescent beta-arrestin assay - Set 2. [Related pubchem assays (depositor defined):AID1777, AID1785, AID1786, AID1966, AID2133, AID2136, AID2284, AID449737]; assay type: functional
[20] = target: T4, Delta-type opioid receptor; experiment: SAR Analysis of Agonists of the DOR Receptor using an Image-Based Assay - Set 2. [Related pubchem assays (depositor defined):AID1777, AID1785, AID1786, AID1966, AID2133, AID2136, AID2284, AID2285, AID2370]; assay type: functional
[21] = target: T5, Mu-type opioid receptor; experiment: SAR Analysis of Agonists of the MOR Receptor using an Image-Based Assay - Set 2. [Related pubchem assays (depositor defined):AID1777, AID1785, AID1786, AID1966, AID2133, AID2136, AID2284, AID2285, AID2352]; assay type: functional
[22] = target: T6, Kappa-type opioid receptor; experiment: SAR analysis of Agonists of the Kappa Opioid Receptor (KOR) using an Image-Based Assay - Set 2. [Related pubchem assays (depositor defined):AID1777, AID1786, AID1966, AID2133, AID2136, AID2284, AID2285, AID2359]; assay type: functional
[23] = target: T6, Kappa-type opioid receptor; experiment: SAR analysis of Antagonists of the Kappa Opioid Receptor (KOR) using an Image-Based Assay - Set 2. [Related pubchem assays (depositor defined):AID1777, AID1785, AID1786, AID1966, AID2133, AID2136, AID2284, AID2285, AID2348]; assay type: functional
[24] = target: T7, Ubiquitin-conjugating enzyme E2 N (Homo sapiens, UniProt P61088); assay type: functional
T7 sequence (P61088 whole entry): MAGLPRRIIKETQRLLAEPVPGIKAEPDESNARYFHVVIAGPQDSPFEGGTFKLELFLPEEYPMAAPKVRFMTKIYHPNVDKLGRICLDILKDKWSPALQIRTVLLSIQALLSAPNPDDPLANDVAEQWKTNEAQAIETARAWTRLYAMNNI

[25] = target: T8, Bcl-2-related protein A1 (Mus musculus, UniProt Q07440); assay type: functional;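 note: confirmatory dose–response counterscreen on Bfl-1, used to check hits from a UBC13 polyubiquitin inhibitor campaign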
T8 sequence (Q07440 whole entry): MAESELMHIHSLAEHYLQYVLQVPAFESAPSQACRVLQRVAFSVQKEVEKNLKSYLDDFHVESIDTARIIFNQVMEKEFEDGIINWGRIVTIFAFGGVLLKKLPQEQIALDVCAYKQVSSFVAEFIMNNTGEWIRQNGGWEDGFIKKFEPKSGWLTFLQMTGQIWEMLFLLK

[26] = target: T7, Ubiquitin-conjugating enzyme E2 N; assay type: functional; remark: listed apart in the source

T6 sequence (P41145 whole entry): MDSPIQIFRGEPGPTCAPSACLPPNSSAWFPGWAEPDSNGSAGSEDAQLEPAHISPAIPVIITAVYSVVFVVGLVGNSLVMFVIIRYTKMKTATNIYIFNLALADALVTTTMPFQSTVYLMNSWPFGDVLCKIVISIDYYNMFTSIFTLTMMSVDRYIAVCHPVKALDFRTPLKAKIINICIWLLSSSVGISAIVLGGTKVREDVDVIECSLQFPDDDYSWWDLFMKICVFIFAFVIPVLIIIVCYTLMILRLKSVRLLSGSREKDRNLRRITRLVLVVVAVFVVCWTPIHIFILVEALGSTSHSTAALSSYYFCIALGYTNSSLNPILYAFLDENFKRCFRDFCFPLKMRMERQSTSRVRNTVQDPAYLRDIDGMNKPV
T3 sequence (P21554 whole entry): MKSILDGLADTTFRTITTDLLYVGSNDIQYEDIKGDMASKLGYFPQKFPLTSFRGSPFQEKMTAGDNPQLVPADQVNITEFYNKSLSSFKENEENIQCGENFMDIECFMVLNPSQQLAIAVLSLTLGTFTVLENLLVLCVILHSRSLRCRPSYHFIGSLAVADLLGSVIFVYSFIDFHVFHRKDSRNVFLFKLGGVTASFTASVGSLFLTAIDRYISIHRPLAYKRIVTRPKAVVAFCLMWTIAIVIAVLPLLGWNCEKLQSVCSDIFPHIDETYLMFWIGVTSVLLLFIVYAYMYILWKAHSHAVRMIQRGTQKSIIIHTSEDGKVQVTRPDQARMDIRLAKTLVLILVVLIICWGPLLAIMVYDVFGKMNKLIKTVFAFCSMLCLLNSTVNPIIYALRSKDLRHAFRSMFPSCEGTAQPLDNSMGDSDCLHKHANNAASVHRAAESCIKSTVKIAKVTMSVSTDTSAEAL
T2 sequence (Q9HC97 whole entry): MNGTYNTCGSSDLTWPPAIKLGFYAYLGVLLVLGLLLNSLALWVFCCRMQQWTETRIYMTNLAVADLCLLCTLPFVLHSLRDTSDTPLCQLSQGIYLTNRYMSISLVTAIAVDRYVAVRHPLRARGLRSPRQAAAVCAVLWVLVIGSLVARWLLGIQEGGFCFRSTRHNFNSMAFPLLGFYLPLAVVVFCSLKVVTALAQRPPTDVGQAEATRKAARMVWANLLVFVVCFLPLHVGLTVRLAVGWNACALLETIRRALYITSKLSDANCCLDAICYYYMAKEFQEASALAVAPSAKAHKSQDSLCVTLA
T5 sequence (P35372 whole entry): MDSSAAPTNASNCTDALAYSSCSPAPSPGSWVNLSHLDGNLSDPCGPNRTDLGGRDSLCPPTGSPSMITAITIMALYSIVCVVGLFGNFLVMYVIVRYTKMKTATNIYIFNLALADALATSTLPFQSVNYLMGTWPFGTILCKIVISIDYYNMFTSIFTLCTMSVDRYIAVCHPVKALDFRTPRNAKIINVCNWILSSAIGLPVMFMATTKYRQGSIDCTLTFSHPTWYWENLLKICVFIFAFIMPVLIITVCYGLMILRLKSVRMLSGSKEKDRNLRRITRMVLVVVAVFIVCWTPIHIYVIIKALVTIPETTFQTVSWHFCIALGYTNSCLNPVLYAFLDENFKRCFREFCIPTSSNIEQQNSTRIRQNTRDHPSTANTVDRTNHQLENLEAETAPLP
T4 sequence (P41143 whole entry): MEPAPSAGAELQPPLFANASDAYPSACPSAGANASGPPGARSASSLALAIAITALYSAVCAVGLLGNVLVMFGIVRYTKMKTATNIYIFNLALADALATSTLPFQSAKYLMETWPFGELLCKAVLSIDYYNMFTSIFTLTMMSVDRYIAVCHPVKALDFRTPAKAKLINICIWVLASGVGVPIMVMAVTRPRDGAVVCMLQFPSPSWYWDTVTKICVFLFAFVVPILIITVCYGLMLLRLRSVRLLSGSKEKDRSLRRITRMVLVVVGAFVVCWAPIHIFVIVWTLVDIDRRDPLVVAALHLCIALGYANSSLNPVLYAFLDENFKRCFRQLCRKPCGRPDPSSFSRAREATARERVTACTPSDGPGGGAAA
T1 sequence (P34972 whole entry): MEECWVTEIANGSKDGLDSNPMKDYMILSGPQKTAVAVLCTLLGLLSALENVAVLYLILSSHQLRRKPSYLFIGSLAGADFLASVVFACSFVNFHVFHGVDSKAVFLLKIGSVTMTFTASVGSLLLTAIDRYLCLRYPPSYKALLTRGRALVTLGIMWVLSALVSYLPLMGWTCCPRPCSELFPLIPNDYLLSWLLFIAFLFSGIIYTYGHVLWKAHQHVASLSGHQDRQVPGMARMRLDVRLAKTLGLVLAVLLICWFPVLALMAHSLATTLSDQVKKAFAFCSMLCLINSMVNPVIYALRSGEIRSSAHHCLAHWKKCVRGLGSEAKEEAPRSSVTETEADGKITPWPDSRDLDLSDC
G-protein coupled receptor 55, sequence (Q9Y2T6 whole entry): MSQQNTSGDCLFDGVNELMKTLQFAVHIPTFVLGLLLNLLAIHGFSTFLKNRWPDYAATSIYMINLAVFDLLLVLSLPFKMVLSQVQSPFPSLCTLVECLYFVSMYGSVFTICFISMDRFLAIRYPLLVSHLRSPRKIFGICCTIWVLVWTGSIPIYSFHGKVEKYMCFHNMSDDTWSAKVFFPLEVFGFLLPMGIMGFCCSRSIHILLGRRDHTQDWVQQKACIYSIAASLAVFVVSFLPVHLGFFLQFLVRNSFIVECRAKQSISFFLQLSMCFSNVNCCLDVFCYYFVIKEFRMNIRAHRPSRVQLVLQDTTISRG

SMILES: COc1ccc(/C=C/C(=O)c2cc(F)ccc2OC(=O)c2ccccc2)cc1OC
- EC50 [1]: 0.699 µM (active)
- IC50 [2]: > 80 µM (inactive)
- EC50 [3]: 0.666 µM (inconclusive)
- EC50 [4]: 0.699 µM (inconclusive)
- EC50 [5]: 12.8 µM (active)
- EC50 [6]: < 0.195 µM (active)
- EC50 [7]: 0.666 µM (active)
- EC50 [8]: 0.697 µM (inconclusive)
- EC50 [9]: 0.697 µM (active)

SMILES: O=C(N1CCC(n2nc(-c3ccccc3)oc2=O)CC1)C1(c2ccccc2)CCCC1
- EC50 [10]: > 32 µM (inactive)
- EC50 [11]: > 32 µM (inactive)
- IC50 [12]: 14 µM (inactive)
- EC50 [13]: > 32 µM (inactive)
- IC50 [14]: 1.98 µM (active)
- IC50 [15]: 2.7 µM (active)
- IC50 [16]: > 32 µM (inactive)

SMILES: CCc1ccc(S(=O)(=O)NCc2ccc(C(=O)NCCN(Cc3ccccc3)C(C)C)cc2)cc1
- IC50 [17]: > 32 µM (inactive)
- IC50 [18]: > 32 µM (inactive)
- EC50 [19]: > 20 µM (inactive)
- EC50 [20]: > 32 µM (inactive)
- EC50 [21]: > 32 µM (inactive)
- EC50 [22]: > 32 µM (inactive)
- IC50 [23]: 2.55 µM (active)

SMILES: C/C(=N\NC(=O)CSCc1ccc([N+](=O)[O-])cc1)c1ccccc1
- IC50 [24]: 6.86 µM (active)
- IC50 [25]: > 20 µM (inactive)
- IC50 [26]: 4.9 µM (active)
